Experiment [1] has as its system human multiple myeloma cell line, OPM-2. Put plainly: Cell viability assay (OPM-2 10 FBS), CellTiter-Glo. It is filed as cell-based. The method, boiled down: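 OPM-2 cells at 3000 cells/well in RPMI 1640 with 10% FBS were exposed to serially diluted compounds for 16 h at 37 °C, 5% CO2.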
On the technique in general: In ATP-based viability assays light output follows the ATP content of the culture.

For experiment [2], the target named is recombinant human Mcl-1 (residues 171-327) / Bim interaction (Homo sapiens (Human), UniProt Q07820). Put plainly: biochemical. It is filed as binding. To be noted: TR-FRET, Mcl-1(171-327) / biotin-Bim (51-76); read-out: Mcl-1 HTRF IC50. In general terms: In TR-FRET formats the signal depends on donor and acceptor labels being close together.
Sequence of recombinant human Mcl-1 (residues 171-327) / Bim interaction (Q07820 171-327): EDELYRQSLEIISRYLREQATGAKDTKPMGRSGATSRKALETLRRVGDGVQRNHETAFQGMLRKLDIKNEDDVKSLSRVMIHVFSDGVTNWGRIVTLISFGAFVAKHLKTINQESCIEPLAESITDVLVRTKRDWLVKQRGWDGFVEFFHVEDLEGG
[3] abbreviates: Homo sapiens, OPM-2, 16 h, read-out: OPM-2 10% FBS IC50 IP, OPM-2 cells, 10% FBS, 16 h, CellTiter-Glo.
[4] abbreviates: read-out: OPM-2 10% FBS IC50 IP, OPM-2 cells, 10% FBS, 16 h, CellTiter-Glo.

pIC50: −log10 of the molar value. Read-outs that look alike come from different tables or passages of the source.

In the case of `C[C@@H]1[C@@H](C)C/C=C/[C@@](O)(c2nc(CO)nn2C)[C@@H]2CC[C@H]2CN2C[C@@]3(CCCc4cc(Cl)ccc43)COc3ccc(cc32)C(=O)NS1(=O)=O` [Example 100200, (1S,3′R,6′R,7′S,8′E,11′S,12′R)-6-chloro-7′-hydroxy-7′-(3-(hydroxymethyl)-1-methyl-1H-1,2,4-triazol-5-yl)-11′,12′-dimethyl-3,4-dihydro-2H,15′H-spiro[naphthalene-1,22′-[20]oxa[13]thia[1,14]diazatetracyclo [14.7.2.0~3,6~.0~19,24~]pentacosa[8,16,18,24]tetraen]-15′-one 13′,13′-dioxide], the pIC50 is 5.97 in experiment [1] (setting [3]) and 9.67 in experiment [2].
For `C#C[C@]1(OC)/C=C/C[C@H](C)[C@@H](C)S(=O)(=O)NC(=O)c2ccc3c(c2)N(C[C@@H]2CC[C@H]21)C[C@@]1(CCCc2cc(Cl)ccc21)CO3` [Example 100502, (1S,3′R,6′R,7′S,8′E,11′S,12′R)-6-chloro-7′-ethynyl-7′-methoxy-11′,12′-dimethyl-3,4-dihydro-2H,15′H-spiro[naphthalene-1,22′-[20]oxa[13]thia[1,14]diazatetracyclo [14.7.2.0~3,6~.0~19,24~]pentacosa[8,16,18,24]tetraen]-15′-one 13′,13′-dioxide] the same measures were 6.41 and 9.54.
The matching figures for `Cc1ccc([C@]2(O)/C=C/C[C@H](C)[C@@H](C)S(=O)(=O)NC(=O)c3ccc4c(c3)N(C[C@@H]3CC[C@H]32)C[C@@]2(CCCc3cc(Cl)ccc32)CO4)cn1` (single isomer, unassigned) [Example 100408]: 5.25 and 8.87.
With `C[C@@H]1[C@@H](C)C/C=C/[C@@](O)(C(F)F)[C@@H]2CC[C@H]2CN2C[C@@]3(CCCc4cc(Cl)ccc43)COc3ccc(cc32)C(=O)NS1(=O)=O` [Example 100069, (1S,3′R,6′R,7′S,8′E,11′S,12′R)-6-chloro-7′-(difluoromethyl)-7′-hydroxy-11′,12′-dimethyl-3,4-dihydro-2H,15′H-spiro[naphthalene-1,22′-[20]oxa[13]thia[1,14]diazatetracyclo [14.7.2.0~3,6~.0~19,24~]pentacosa[8,16,18,24]tetraen]-15′-one 13′,13′-dioxide], the pIC50 in experiment [1] (setting [4]) is 6.60; in experiment [2], 9.34.
Turning to `C[C@@H]1[C@@H](C)C/C=C/[C@@](O)(C#CCCN(C)C)[C@@H]2CC[C@H]2CN2C[C@@]3(CCCc4cc(Cl)ccc43)COc3ccc(cc32)C(=O)NS1(=O)=O` [Example 100308, (1S,3′R,6′R,7′S,8′E,11′S,12′R)-6-chloro-7′-(4-(dimethylamino)-1-butyn-1-yl)-7′-hydroxy-11′,12′-dimethyl-3,4-dihydro-2H,15′H-spiro[naphthalene-1,22′-[20]oxa[13]thia[1,14]diazatetracyclo [14.7.2.0~3,6~.0~19,24~]pentacosa[8,16,18,24]tetraen]-15′-one 13′,13′-dioxide], the figures for the negative-log IC50 (pIC50) in experiment [1] (setting [4]) and in experiment [2] were 5.93 and 10.48, respectively.
The matching figures for `C[C@@H]1[C@@H](C)C/C=C/[C@@](O)(C#CCN2CCCCC2)[C@@H]2CC[C@H]2CN2C[C@@]3(CCCc4cc(Cl)ccc43)COc3ccc(cc32)C(=O)NS1(=O)=O` [Example 100421, (1S,3′R,6′R,7′S,8′E,11′S,12′R)-6-chloro-7′-hydroxy-11′,12′-dimethyl-7′-(3-(1-piperidinyl)-1-propyn-1-yl)-3,4-dihydro-2H,15′H-spiro[naphthalene-1,22′-[20]oxa[13]thia[1,14]diazatetracyclo [14.7.2.0~3,6~.0~19,24~]pentacosa[8,16,18,24]tetraen]-15′-one 13′,13′-dioxide]: 5.31 and 8.41.

By pIC50 is commonly meant the IC50 on a negative log10 scale, so that one unit is a factor of ten.

(Values after US10821115B2, “Compounds that inhibit Mcl-1 protein” (priority 2017, dated 2020).)
